Laboratory results as given in US20250074911A1, “MACROCYCLIC BTK INHIBITORS” (Crossfire Oncology Holding B.V., priority 2021, published 2025).
Like-named read-outs stand apart in the source and are kept apart here.

Key:
wt-BTK = wt-BTK (Homo sapiens (Human), UniProt Q06187); assay: Binding kinetics measurements (Surface Plasmon Resonance) on wt-BTK; settings: for Kd: binding affinity by Surface Plasmon Resonance (SPR); for Tau (h) wt-BTK (Act): target residence time, SPR
Summary of the method: (§1)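 Using streptavidin-captured kinase, binding was followed by SPR in 1% DMSO buffer at 22° C and 30 μl/min. Five consecutive compound injections spanned 3.16-316 nM, preceded by a blank run; data were double referenced before kinetic fitting.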

BTK C481S = BTK C481S (Homo sapiens (Human), UniProt Q06187, C481S); assay: Binding kinetics measurements (Surface Plasmon Resonance) on BTK C481S; settings: for Kd: binding affinity by Surface Plasmon Resonance (SPR); for Tau (h) BTK C418S (Act): target residence time for BTK C481S, SPR
Sequence of BTK C481S (Q06187 whole entry C481S): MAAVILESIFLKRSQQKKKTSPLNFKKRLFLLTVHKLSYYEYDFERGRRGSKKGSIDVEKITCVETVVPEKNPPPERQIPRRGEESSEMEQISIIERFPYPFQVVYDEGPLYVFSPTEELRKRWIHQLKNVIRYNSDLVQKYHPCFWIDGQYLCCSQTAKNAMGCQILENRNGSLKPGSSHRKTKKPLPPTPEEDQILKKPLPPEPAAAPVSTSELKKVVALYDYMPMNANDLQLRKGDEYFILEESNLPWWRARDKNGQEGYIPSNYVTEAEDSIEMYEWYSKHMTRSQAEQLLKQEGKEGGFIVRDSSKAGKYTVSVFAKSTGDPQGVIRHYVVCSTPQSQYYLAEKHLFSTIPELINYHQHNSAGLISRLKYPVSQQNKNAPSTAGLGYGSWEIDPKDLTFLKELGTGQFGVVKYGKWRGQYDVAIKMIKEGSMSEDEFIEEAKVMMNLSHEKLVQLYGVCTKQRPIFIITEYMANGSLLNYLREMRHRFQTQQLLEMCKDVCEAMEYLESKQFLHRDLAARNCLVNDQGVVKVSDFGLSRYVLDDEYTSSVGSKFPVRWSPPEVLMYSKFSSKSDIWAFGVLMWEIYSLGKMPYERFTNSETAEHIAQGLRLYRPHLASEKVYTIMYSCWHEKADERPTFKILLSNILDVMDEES
Summary of the method: as §1

BTK T316A = BTK T316A (Homo sapiens (Human), UniProt Q06187, T316A); assay: Binding kinetics measurements (Surface Plasmon Resonance) on BTK T316A; settings: for Kd: binding affinity by Surface Plasmon Resonance (SPR); for Tau (h) BTK T316A (Act): target residence time, SPR
Sequence of BTK T316A (Q06187 whole entry T316A): as the sequence (Q06187 whole entry C481S) above, with T316A, S481C counted along it
Summary of the method: as §1

BTK T474I = BTK T474I (Homo sapiens (Human), UniProt Q06187, T474I); assay: Binding kinetics measurements (Surface Plasmon Resonance) on BTK T474I; settings: for Kd: binding affinity by Surface Plasmon Resonance (SPR); for Tau (h) BTK T474I (Act): target residence time, SPR
Sequence of BTK T474I (Q06187 whole entry T474I): as the sequence (Q06187 whole entry C481S) above, with T474I, S481C counted along it
Summary of the method: as §1

BTK T474S = BTK T474S (Homo sapiens (Human), UniProt Q06187, T474S); assay: Binding kinetics measurements (Surface Plasmon Resonance) on BTK T474S; settings: for Kd: binding affinity by Surface Plasmon Resonance (SPR); for residence time: read-out: Tau (h) BTK T474S (Act)
Sequence of BTK T474S (Q06187 whole entry T474S): as the sequence (Q06187 whole entry C481S) above, with T474S, S481C counted along it
Summary of the method: as §1

[1] = system: wt-BTK, BTK C481S, BTK T474I and BTK C481S/T474I expressing 293 cells; assay: Cell based washout, pBTK (Tyr223) Western blot; design: species or system human; settings: 1000 nM compound 2 hours, washed twice, harvested 0-24 hours
Experimental: In vitro cellular (mutant) BTK inhibition, and inhibitor wash-out Generation of human wt-BTK, BTK C481S, BTK T474I, and BTK C481S/T474I expressing GripTite 293 MSR cells.
GripTite 293 MSR cells (Thermo Fisher, cat. no. R79507), here after referred to as 293 cells, were cultured in DMEM/F-12, GIutaMAX™ supplement medium (Thermo Fisher cat. no. 10565018) supplemented with 1% Penicilline/Streptomycine (Thermo Fisher cat. no. 15140122) 10% fetal bovine serum (Biowest, cat. no. Si181 0-500), 1× MEM Non-Essential Amino Acids (Thermo Fisher cat. no. 11140050) and 50 μg/ml Geneticin (Thermo Fisher cat. no. 10131035). Cells were transfected, with pEF6/V5-HisB (Thermo Fisher cat. no. V96120) expression vectors containing either full-length wildtype-BTK (canonical sequence NM_000061), BTK C481 S, BTK T474I or BTK C481 S/T474I (BaseClear) using Lipofectamine™ 3000 (Invitrogen). Because the stop codon at the end of the coding sequence of BTK has been conserved, the His-tag present in the expression vector is not being used. Immediately after transfection, cells were cultured in medium without Geneticin, and after 24 hours 50 μg/ml geneticin was added. 48 hours after transfection, medium was removed and replaced by medium containing both geneticin (50 μg/ml) and blasticidin (10 μg/ml) S HCl (Thermo Fisher, cat. no. A1113903). The resulting transfectants were cultured under blasticidin selection pressure for 18-35 passages to obtain stable wild-type BTK (wt-BTK), BTK C481S, BTK T474I, and BTK C481 S/T474I expressing cell pools. Stability of the (mutant) BTK expression in the 293 cell pools was confirmed by poly-acrylamide gel electrophoresis followed by Western blotting (FIG. 1A). […] For both experiments 10 μg of protein was separated on 4-12% Bis-Tris polyacrylamide gels.
Wild-type BTK, BTK C481S, BTK T474I or BTK C481 S/T474I expressing 293 cells were lysed in lysis buffer supplemented with protease inhibitors (Merck, cat. no. P8340) and phosphatase inhibitors (Thermo Fisher, cat. no. 78426). The protein concentration was determined with a Pierce BCA protein assay kit (Thermo Fisher, cat. no. 23227). Lysates were diluted to a concentration of 1 μg/μl in NuPage® LDS Sample Buffer (Thermo Fisher, cat. no. NP0008) with 167 mM DTT (Acros Organics, cat. no. 10686841) and denatured for 5 minutes at 95° C. The samples (10 μg protein) were, together with a pre stained protein ladder (Thermo Fisher, cat. no. 26616), separated on 4-12% Bis-Tris polyacrylamide gels (Thermo Fisher, cat. no. NP0324BOX). Separated protein was subsequently transferred, in methanol free transfer buffer (Thermo Fisher, cat. no. 35045), to a nitrocellulose membrane (Thermo Fisher, cat. no. 88018). Blots were first immunologically stained with phospho-BTK (Tyr223) rabbit mAb (Cell Signaling, cat. no. 5082S), and beta-actin rabbit mAb (Cell Signaling, cat. no. 4967S), followed by peroxidase conjugated goat anti-rabbit IgG (Cell Signaling, cat. no. 7074S). Afterwards, antibodies were removed using Western-blot stripping buffer (Thermo Fisher cat. no. 46428) and staining was repeated with a (total-)BTK mouse mAb (Abnova, cat. no. MAB0798), followed by peroxidase conjugated horse anti-mouse IgG (Cell Signaling, cat. no. 7076S). For all blots the colour development was performed with ECL horseradish peroxidase substrate (BioRad, cat. no. 170-5060).
Wild-type BTK, BTK C481S, BTK T474I, and BTK C481 S/T474I expressing 293 cells were growing exponentially when seeded in culture medium, without blasticidin, at a density of 2,000,000 cells/4 ml/well, in 25 cm^2 cell culture flasks (Greiner Bio-one, cat. no. 690175). Flasks were placed in a 37° C. C02-incubator for 16-24 hours after which 1 ml culture medium containing 5000 nM of the compound of Example 46 or Example 201, or Example 184, or Example 204, or Example 45 or (+/−) Loxo-305, or 0.05% DMSO (no compound) was added. 2 hours after addition of the inhibitors (0h) cells are either collected or washed twice with 5 ml culture medium. […]

[2] = target: full-length wt-BTK enzyme (Homo sapiens (Human), UniProt Q06187); assay: Biochemical kinase assay wt-BTK (IMAP)
Sequence of full-length wt-BTK enzyme (Q06187 whole entry): as the sequence (Q06187 whole entry C481S) above, with S481C counted along it
Summary of the method: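 Compound and enzyme (final 1.2 nM) were pre-incubated for 1 h at RT, after which the reaction was started with 4 μM ATP plus 50 nM fluorescein-MBP substrate peptide. After 2 h in the dark, the IMAP progressive binding reagent stopped the reaction, and phosphorylation was read by fluorescence polarization.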

[3] = target: full-length BTK C481S enzyme (Homo sapiens (Human), UniProt Q06187, C481S); assay: Biochemical kinase assay BTK C481S (IMAP)
Sequence of full-length BTK C481S enzyme (Q06187 whole entry C481S): as the sequence (Q06187 whole entry C481S) above
Summary of the method: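 IC50 values come from IMAP fluorescence polarization after quenching with progressive binding solution. The reaction ran 2 h at room temperature in the dark with 1.2 nM full-length C481S enzyme, 7 μM ATP and 50 nM fluorescein-labelled MBP-derived peptide, following a 1 h dark pre-incubation of compound with enzyme.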

[4] = system: wt-REC-1 mantle cell lymphoma cells; assay: Cell proliferation assay wt-REC-1 (ATPlite, 72 hours); format: cell-based; settings: 72 h; read-out: IC50 wt-REC-1
Summary of the method: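 Luminescent viability read over 72 h, start-of-incubation signal recorded separately to separate growth from cell death. Percentage growth referenced to compound-free 0.3% DMSO wells; IC50 from 4-parameter logistic fit.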

REC-1 T474I cell lines = assay: Cell proliferation assay REC-1 BTK T474I knock-in cells (ATPlite, 72 hours); format: cell-based; settings: Homo sapiens, Rec1; 72 hours; read-out: IC50 REC-1 T474I
Summary of the method: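 REC-1 cells carrying CRISPR knock-in mutant BTK, single-cell cloned and sequence-confirmed, were exposed to compound for 72 h and read by ATPlite luminescence. Percentage growth was calculated against the signal at the start of incubation and against untreated 0.3% DMSO wells as maximum growth.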

[5] = system: wt-TMD8 diffuse large B-cell lymphoma cells; assay: Cell proliferation assay wt-TMD8 (ATPlite, 120 hours); format: cell-based; settings: B-cell; wt-TMD8 cells, 120 hours, ATPlite; read-out: IC50 wt-TMD8
Summary of the method: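 Readout is percentage growth from ATPlite 1Step luminescence after 5 days (120 h) compound treatment of wt-TMD8 lymphoma cells (1600/well, RPMI-1640 + 10% FBS). Time-zero signal separates growth inhibition from cell kill; 0.3% DMSO wells without compound define maximal growth.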

[6] = SPR binding kinetics, BTK T474S, target residence time (converted)

Sequence of wt-BTK (Q06187 whole entry): as the sequence (Q06187 whole entry C481S) above, with S481C counted along it

| Compound | Tau (h) wt-BTK (Act) (wt-BTK) | Tau (h) BTK C418S (Act) (BTK C481S) | Tau (h) BTK T316A (Act) (BTK T316A) | Tau (h) BTK T474I (Act) (BTK T474I) | IC50 [2] | IC50 [3] | IC50 [4] | IC50 (REC-1 T474I cell lines) | residence time (BTK T474S; [6]) | IC50 [5] | other results |
| --- | --- | --- | --- | --- | --- | --- | --- | --- | --- | --- | --- |
| Nc1ncc2c3c1c(-c1ccc(C(=O)Nc4cc(C(F)(F)F)ccn4)cc1)nn3[C@@H]1CCC[C@H](C1)NC(=O)CCCCC/C=C/2 [Example 46] | 4.87 h | 9.36 h | 3.23 h | 2.58 h |  |  |  |  |  |  | Kd (wt-BTK): < 5 nM; Kd (BTK C481S): < 5 nM; Kd (BTK T316A): < 5 nM; Kd (BTK T474I): < 2 nM; Kd (BTK T474S): < 3 nM; residence time (BTK T474S; target residence time): 4.8 h; time for which level of phosphorylated BTK (pBTK (Tyr223)) is prohibited or reduced after wash-out ([1]; also cell lines expressing mutant BTK): at least 6 hours |
| N#Cc1ccnc(NC(=O)c2ccc(-c3nn4c5c(cnc(N)c35)/C=C/CCCCCC(=O)N[C@@H]3CCC[C@@H]4C3)cc2)c1 [Example 163] | >24 h | 3.51 h | 4.67 h | 4.37 h | < 5 nM | < 5 nM | < 100 nM | < 100 nM | 6.74 h | < 100 nM |  |
| N#Cc1ccnc(NC(=O)c2ccc(-c3nn4c5c(cnc(N)c35)/C=C/COCCC(=O)N[C@@H]3CCC[C@@H]4C3)cc2)c1 [Example 164] | 10.55 h | >24 h | 3.41 h | 0.90 h | < 5 nM | < 5 nM | < 100 nM | < 100 nM | 6.88 h | < 100 nM |  |
| Nc1ncc2c3c1c(-c1ccc(C(=O)Nc4cc(C(F)(F)F)ccn4)cc1)nn3[C@@H]1CC[C@H](C1)NC(=O)CCCCC/C=C/2 [Example 168] | 3.66 h | 6.64 h | 3.81 h | 3.14 h | < 5 nM | < 5 nM | < 100 nM | < 100 nM | > 24 h | < 100 nM |  |
| Nc1ncc2c3c1c(-c1ccc(C(=O)Nc4cc(C(F)(F)F)ccn4)cc1)nn3[C@@H]1CC[C@H](C1)NC(=O)CCOCC/C=C/2 [Example 169] | 2.34 h | 6.60 h | 1.77 h | 3.69 h | < 5 nM | < 5 nM | < 100 nM | < 100 nM | 2.56 h | < 100 nM |  |
| Nc1ncc2c3c1c(-c1ccc(C(=O)Nc4cc(C(F)(F)F)ccn4)cc1)nn3[C@@H]1CC[C@H](C1)NC(=O)CCOC/C=C/2 [Example 170] | 2.05 h | 2.76 h | 1.58 h | 2.54 h | < 5 nM | < 5 nM | < 100 nM | < 100 nM | 3.15 h | < 100 nM |  |
| C[C@@H]1C[C@@H](C)n2nc(-c3ccc(C(=O)Nc4cc(C(F)(F)F)ccn4)cc3)c3c(N)ncc(c32)/C=C/CCCCCC(=O)N1 [Example 172] | 4.83 h | 4.28 h | 2.18 h | 2.35 h | < 5 nM | < 5 nM | < 100 nM | < 100 nM | 18.9 h | < 100 nM | Kd (wt-BTK): < 5 nM; Kd (BTK C481S): < 5 nM; Kd (BTK T316A): < 5 nM; Kd (BTK T474I): < 2 nM; Kd (BTK T474S): < 3 nM |
| COc1ccc(F)cc1C(=O)NCc1ccc(-c2nn([C@@H](C)C(F)(F)F)c(N)c2C(N)=O)cc1 [pirtobrutinib, reference compound] | 0.45 h | 0.91 h | 0.17 h | 0.03 h |  |  |  |  |  |  | target residence time on wild-type-BTK (wt-BTK; result in words): short target residence times; target residence time on BTK C481 mutants (BTK C481S; result in words): short target residence times; target residence time on BTK T316 mutants (BTK T316A; result in words): short target residence times; target residence time on BTK T474 mutants (T474I) (BTK T474I; result in words): short target residence times; residence time (BTK T474S; target residence time): 1.25 h; target residence time on BTK T474 mutants (T474S) (BTK T474S; result in words): short target residence times; level of phosphorylated BTK (pBTK (Tyr223)) in wash-out experiments ([1]; result in words): does not prohibit or reduce the level of phosphorylated BTK |
